For data set [1], the system named is plasma histamine. The note with it: rat, in vivo.
In data set [2] the target is T1, human calcium-sensing receptor (CaSR) (Homo sapiens, UniProt P41180).
T1 construct: expressed in transfected cells; host or cells: HEK 293T cells, transiently transfected (lipofectamine 2000); in some cases HEK293 cells stably transfected
T1 sequence (P41180 20-1078): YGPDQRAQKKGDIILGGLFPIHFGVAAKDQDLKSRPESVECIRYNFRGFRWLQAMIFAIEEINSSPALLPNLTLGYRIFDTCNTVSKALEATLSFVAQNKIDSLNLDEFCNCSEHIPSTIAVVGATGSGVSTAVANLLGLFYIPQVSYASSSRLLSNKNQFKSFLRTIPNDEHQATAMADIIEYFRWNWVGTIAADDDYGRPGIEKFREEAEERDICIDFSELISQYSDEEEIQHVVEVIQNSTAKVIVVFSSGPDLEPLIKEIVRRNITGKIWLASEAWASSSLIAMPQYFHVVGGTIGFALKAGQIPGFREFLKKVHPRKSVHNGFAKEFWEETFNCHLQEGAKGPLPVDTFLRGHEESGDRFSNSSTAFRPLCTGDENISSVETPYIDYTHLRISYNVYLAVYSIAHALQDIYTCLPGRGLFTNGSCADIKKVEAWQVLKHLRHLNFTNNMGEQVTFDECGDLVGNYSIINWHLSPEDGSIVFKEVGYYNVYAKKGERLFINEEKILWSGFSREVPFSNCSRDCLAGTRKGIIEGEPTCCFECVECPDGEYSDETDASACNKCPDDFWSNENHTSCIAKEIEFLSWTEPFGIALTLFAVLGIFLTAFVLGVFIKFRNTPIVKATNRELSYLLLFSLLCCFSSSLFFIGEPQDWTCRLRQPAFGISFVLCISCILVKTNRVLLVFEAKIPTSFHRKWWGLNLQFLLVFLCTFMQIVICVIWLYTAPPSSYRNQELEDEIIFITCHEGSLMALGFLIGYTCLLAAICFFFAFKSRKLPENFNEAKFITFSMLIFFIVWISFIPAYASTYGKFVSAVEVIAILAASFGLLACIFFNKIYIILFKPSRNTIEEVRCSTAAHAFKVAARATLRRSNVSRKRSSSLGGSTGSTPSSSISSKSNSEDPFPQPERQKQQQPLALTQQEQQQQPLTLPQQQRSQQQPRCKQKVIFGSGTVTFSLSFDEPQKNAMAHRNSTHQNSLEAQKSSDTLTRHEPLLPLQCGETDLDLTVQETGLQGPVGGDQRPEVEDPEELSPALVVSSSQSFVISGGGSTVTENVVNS
The experiment in a line: In vitro cell assay in HEK-293 expressing the human calcium-sensing receptor (IP1 production). It is filed as cell-based. Put shortly:
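HEK293 cells transfected with human CaSR exposed to peptides at eight concentrations in duplicate (top 1 mM or 300 μM, ½-log dilutions) at 37 °C for 1.5 h.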

Data set [3] concerns plasma PTH. The experiment in a line: Micropore-facilitated transdermal delivery, plasma PTH in rats. The note with it: CD hairless rats, derma roller microporation, 10% solution in reservoir, FIG. 11.
Data set [4] relates to plasma histamine. The note with it: rat. How it is done:
For the in vivo evaluation of histamine release, compounds were dosed in isoflurane-anesthetized normal rats at 2 mg/kg by IV bolus (administered over less than one minute). Plasma histamine was measured 5 minutes after compound administration (Cayman histamine EIA #589651).

In data set [5] the test system is plasma PTH. The experiment in a line: In vivo PTH lowering after IV bolus in isoflurane-anesthetized normal Sprague Dawley rats. Also on record: species or system rat. The note with it: for PTH-lowering activity in normal rats: 0.5 mg/kg single IV administration. In outline: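 Peptides were given as a 0.5 mg/kg IV bolus to normal Sprague Dawley rats kept under isoflurane throughout, with saline bolus controls.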

Setting [6] is: Table 5, IP1 production in HEK293 cells expressing human CaSR, eight concentrations in duplicate, read-out: EC50 in CaSR in vitro assay.

Structures are written as SMILES. Entries after “also recorded” stand apart in the source; their conditions may differ. Where two headings read alike, the source gives them in different places.

For orientation: EC50 means the concentration at which the effect is half-maximal. Consider `CC(=O)N[C@H](CS)C(=O)N[C@H](CCCNC(=N)N)C(=O)N[C@H](CCCNC(=N)N)C(=O)N[C@H](CCCNC(=N)N)C(=O)N[C@H](CCCNC(=N)N)C(=O)N[C@H](CCCNC(=N)N)C(=O)N[C@H](CCCNC(=N)N)C(N)=O` [SEQ ID NO: 6, Ac-crrrrrr-NH2], for which the “fold increase in histamine level relative to pre-dose” value in data set [1] is 7 fold. Further, the “histamine response after IV bolus” value in data set [1] (iv) is recorded as “returned to baseline levels 15 minutes later”. Besides, the EC50 was 500 nM in data set [2] (Table 1, IP1 in HEK293 cells expressing human CaSR, read-out: In vitro EC50) and 500 nM in data set [2] (setting [6]). Further, the “duration of PTH reduction from baseline” value in data set [3] is approximately 4 h. Also, the “Histamine response in vivo Fold change from pre-dose levels 5′ post injection 2 mg/kg IV bolus” value in data set [4] is listed as 2.7 fold. Besides, the “duration of decreased PTH” value in data set [5] (0.5 mg/kg IV bolus, normal rats, FIG. 5) is “at least four hours”. The “PTH-lowering activity in normal rats” value in data set [5] is “below the detection limit or essentially zero”. Also, in data set [5] (Table 1, isoflurane-anesthetized normal rats, 0.5 mg/kg IV, 1 hour), the “% PTH reduction of baseline at 1 hour post IV admin. of 0.5 mg/kg compound” value worked out at 4%. For the same molecule, the “0.5 mg/kg IV bolus % PTH AUC of saline control” value is on record as 0% in data set [5] (Table 1, normal rats, PTH at 1, 2, 3, 4 h, AUCcmpd treated/AUCsaline control*100) and 3% in data set [5] (Table 3, normal rats, AUC 1-4 h).

For `CC(=O)N[C@H](CS)C(=O)N[C@H](C)C(=O)N[C@H](CCCNC(=N)N)C(=O)N[C@H](CCCNC(=N)N)C(=O)N[C@H](CCCNC(=N)N)C(=O)N[C@H](C)C(=O)N[C@H](CCCNC(=N)N)C(N)=O` [SEQ ID NO: 26, Ac-carrrar-NH2], the EC50 in data set [2] (setting [6]) turned out to be 1600 nM. The “Histamine response in vivo Fold change from pre-dose levels 5′ post injection 2 mg/kg IV bolus” value in data set [4] was found to be 1.0 fold. The “PTH-lowering activity in normal rats” value in data set [5] is listed as “decreased PTH blood concentration to a non-detectable level for up to 4 hours after dosing; also recorded: very active”. For the same molecule, the “% PTH reduction of baseline at 1 hour post IV administration of 0.5 mg/kg compound” value in data set [5] (Table 2, isoflurane-anesthetized normal rats, 0.5 mg/kg IV, 1 hour) worked out at 0%. For the same molecule, the “0.5 mg/kg IV bolus % PTH AUC of saline control” value in data set [5] (Table 2, normal rats, AUC 1-4 h) was found to be 1%.
